Numbers after ± are expanded uncertainties.
Experiment: molar heat capacity at constant pressure
Settings: 101.33 kPa, Crystal, relaxation calorimetry

O[C@H]1[C@H](O)[C@H](O)OC[C@H]1O [β-D-arabinopyranose]
Settings	molar heat capacity at constant pressure [J/K/mol]
41.64 K	26.31 ± 1.1
43.83 K	28.17 ± 1.1
45 K	29.23 ± 1.2
46.19 K	30 ± 1.2
48.63 K	31.87 ± 1.3
50 K	33.14 ± 1.3
51.26 K	34.52 ± 1.4
53.96 K	35.9 ± 1.5
55 K	36.8 ± 1.5
56.88 K	38.09 ± 1.5
59.89 K	40.36 ± 1.6
60 K	40.35 ± 1.6
63.13 K	42.59 ± 1.7
65 K	43.88 ± 1.8
66.46 K	45.03 ± 1.8
70 K	47.36 ± 1.9
70.07 K	47.59 ± 1.9
73.76 K	50.07 ± 2
75 K	50.8 ± 2.1
77.78 K	52.92 ± 2.1
80 K	54.2 ± 2.2
81.9 K	55.02 ± 2.2
85 K	57.56 ± 2.3
86.34 K	58.01 ± 2.4
90 K	60.88 ± 2.5
90.84 K	61.56 ± 2.5
95 K	64.18 ± 2.6
95.82 K	64.72 ± 2.6
100 K	67.44 ± 2.7
100.82 K	67.63 ± 2.7
105.87 K	71.22 ± 2.9
110 K	73.87 ± 3
110.95 K	74.61 ± 3
116.03 K	77.25 ± 3.1
120 K	80.2 ± 3.3
121.05 K	81.12 ± 3.3
126.07 K	84.2 ± 3.4
130 K	86.45 ± 3.5
131.11 K	87.48 ± 3.6
136.18 K	90.66 ± 3.7
140 K	92.63 ± 3.8
141.2 K	93.47 ± 3.8
146.26 K	96.4 ± 3.9
150 K	98.75 ± 4
151.33 K	99.46 ± 4
156.34 K	102.71 ± 4.2
160 K	104.83 ± 4.3
161.42 K	105.84 ± 4.3
166.44 K	108.82 ± 4.4
170 K	110.86 ± 4.5
171.52 K	111.71 ± 4.5
176.58 K	114.66 ± 4.7
180 K	116.86 ± 4.8
181.62 K	117.85 ± 4.8
186.66 K	121.01 ± 4.9
190 K	122.82 ± 5
191.69 K	123.97 ± 5
196.75 K	126.57 ± 5.1
200 K	128.77 ± 5.2
201.79 K	129.39 ± 5.3
206.8 K	132.11 ± 5.4
210 K	134.69 ± 5.5
211.88 K	135.86 ± 5.5
216.86 K	138.45 ± 5.6
220 K	140.59 ± 5.7
221.99 K	141.54 ± 5.8
226.98 K	144.9 ± 5.9
230 K	146.48 ± 6
232.03 K	147.66 ± 6
237.15 K	150.47 ± 6.1
240 K	152.35 ± 6.2
242.11 K	153.65 ± 6.2
247.24 K	156.9 ± 6.4
250 K	158.21 ± 6.4
252.28 K	159.78 ± 6.5
257.34 K	162.75 ± 6.6
260 K	164.06 ± 6.7
262.36 K	165.45 ± 6.7
267.38 K	168.46 ± 6.8
270 K	169.9 ± 6.9
272.39 K	171.4 ± 7
273.15 K	171.74 ± 7
277.53 K	174.86 ± 7.1
280 K	175.73 ± 7.1
282.55 K	177.62 ± 7.2
287.61 K	180.21 ± 7.3
290 K	181.55 ± 7.4
292.62 K	182.92 ± 7.4
297.64 K	185.3 ± 7.5
298.15 K	186.29 ± 7.6
300 K	187.36 ± 7.6
302.65 K	188.73 ± 7.7

Reference: the NIST ThermoML archive (doi:10.1016/j.jct.2015.08.031)
